Results from ChEMBL document CHEMBL5584256, “Bromine/Sulfur-Substituted 9H-Carbazoles Produced by the Marine-Derived Streptomyces sp. OUCMDZ-5511 upon NaBr Exposure” (J Nat Prod, 2024).
Activity calls are given as the source filed them. No cut-off for these calls is given here.

Columns and labels:
Danio rerio [1] = species: Danio rerio; experiment: Anti-inflammatory activity in transgenic zebrafish harboring Tg (zlyz:EGFP) assessed as reduction in CuSO4-induced MYD88 mRNA level at 5 to 15 uM preincubated for 2 hrs followed by CuSO4 treatment for 45 mins […]; format: functional, organism-based; conditions: dose 5-15 µM, time 165.0 min
Danio rerio [2] = species: Danio rerio; experiment: Anti-inflammatory activity in transgenic zebrafish harboring Tg (zlyz:EGFP) assessed as reduction in CuSO4-induced IRAK4 mRNA level at 5 to 15 uM preincubated for 2 hrs followed by CuSO4 treatment for 45 mins […]; format: functional, organism-based; conditions: dose 5-15 µM, time 165.0 min
Danio rerio [3] = species: Danio rerio; experiment: Anti-inflammatory activity in transgenic zebrafish harboring Tg (zlyz:EGFP) assessed as reduction in CuSO4-induced IRAK1 mRNA level at 5 to 15 uM preincubated for 2 hrs followed by CuSO4 treatment for 45 mins […]; format: functional, organism-based; conditions: dose 5-15 µM, time 165.0 min
Danio rerio [4] = species: Danio rerio; experiment: Anti-inflammatory activity in transgenic zebrafish harboring Tg (zlyz:EGFP) assessed as reduction in CuSO4-induced AP-1 mRNA level at 5 to 15 uM preincubated for 2 hrs followed by CuSO4 treatment for 45 mins […]; format: functional, organism-based; conditions: dose 5-15 µM, time 165.0 min
Danio rerio [5] = species: Danio rerio; experiment: Anti-inflammatory activity in transgenic zebrafish harboring Tg (zlyz:EGFP) assessed as reduction in CuSO4-induced IKK-beta mRNA level at 5 to 15 uM preincubated for 2 hrs followed by CuSO4 treatment for 45 mins […]; format: functional, organism-based; conditions: dose 5-15 µM, time 165.0 min
Danio rerio [6] = species: Danio rerio; experiment: Anti-inflammatory activity in transgenic zebrafish harboring Tg (zlyz:EGFP) assessed as reduction in CuSO4-induced immune cell migration at 5 to 15 uM preincubated for 2 hrs followed by CuSO4 treatment for 45 mins by fluorescence microscopy; format: functional, organism-based; conditions: dose 5-15 µM, time 165.0 min
Danio rerio [7] = species: Danio rerio; experiment: Anti-inflammatory activity in transgenic zebrafish harboring Tg (zlyz:EGFP) assessed as reduction in CuSO4-induced TRAF6 mRNA level at 5 to 15 uM preincubated for 2 hrs followed by CuSO4 treatment for 45 mins […]; format: functional, organism-based; conditions: dose 5-15 µM, time 165.0 min
Danio rerio [8] = species: Danio rerio; experiment: Anti-inflammatory activity in transgenic zebrafish harboring Tg (zlyz:EGFP) assessed as reduction in CuSO4-induced NF-kappa-b mRNA level at 5 to 15 uM preincubated for 2 hrs followed by CuSO4 treatment for 45 mins […]; format: functional, organism-based; conditions: dose 5-15 µM, time 165.0 min
Danio rerio [9] = species: Danio rerio; experiment: Anti-inflammatory activity in transgenic zebrafish harboring Tg (zlyz:EGFP) assessed as reduction in CuSO4-induced immune cell migration at 10 uM preincubated for 2 hrs followed by CuSO4 treatment for 45 mins by fluorescence microscopy; format: functional, organism-based; conditions: time 165.0 min
Danio rerio [10] = species: Danio rerio; experiment: Anti-inflammatory activity in transgenic zebrafish harboring Tg (zlyz:EGFP) assessed as increase in CuSO4-reduced PPAR-gamma mRNA level at 5 to 15 uM preincubated for 2 hrs followed by CuSO4 treatment for 45 mins […]; format: functional, organism-based; conditions: dose 5-15 µM, time 165.0 min
Danio rerio [11] = species: Danio rerio; experiment: Anti-inflammatory activity in transgenic zebrafish harboring Tg (zlyz:EGFP) assessed as reduction in CuSO4-induced MAP3K7 mRNA level at 5 to 15 uM preincubated for 2 hrs followed by CuSO4 treatment for 45 mins […]; format: functional, organism-based; conditions: dose 5-15 µM, time 165.0 min
Danio rerio [12] = species: Danio rerio; experiment: Anti-inflammatory activity in transgenic zebrafish harboring Tg (zlyz:EGFP) assessed as reduction in CuSO4-induced TGF-beta mRNA level at 5 to 15 uM preincubated for 2 hrs followed by CuSO4 treatment for 45 mins […]; format: functional, organism-based; conditions: dose 5-15 µM, time 165.0 min
Danio rerio [13] = species: Danio rerio; experiment: Anti-inflammatory activity in transgenic zebrafish harboring Tg (zlyz:EGFP) assessed as reduction in CuSO4-induced IL-8 mRNA level at 5 to 15 uM preincubated for 2 hrs followed by CuSO4 treatment for 45 mins […]; format: functional, organism-based; conditions: dose 5-15 µM, time 165.0 min
[14] = Toxicity in transgenic zebrafish harboring Tg (zlyz:EGFP) preincubated for 2 hrs followed by CuSO4 treatment for 45 mins; design: species or system Danio rerio; conditions: in vivo, time 165 min
Danio rerio [15] = species: Danio rerio; experiment: Anti-inflammatory activity in transgenic zebrafish harboring Tg (zlyz:EGFP) assessed as reduction in CuSO4-induced I-kappa-b-alpha mRNA level at 5 to 15 uM preincubated for 2 hrs followed by CuSO4 treatment for 45 mins […]; format: functional, organism-based; conditions: dose 5-15 µM, time 165.0 min
Danio rerio [16] = species: Danio rerio; experiment: Anti-inflammatory activity in transgenic zebrafish harboring Tg (zlyz:EGFP) assessed as reduction in CuSO4-induced p38 mRNA level at 5 to 15 uM preincubated for 2 hrs followed by CuSO4 treatment for 45 mins […]; format: functional, organism-based; conditions: dose 5-15 µM, time 165.0 min

Structure (SMILES) | Activity (Danio rerio [1]) | Activity (Danio rerio [2]) | Activity (Danio rerio [3]) | Activity (Danio rerio [4]) | Activity (Danio rerio [5]) | Activity (Danio rerio [6]) | Activity (Danio rerio [7]) | Activity (Danio rerio [8]) | Activity (Danio rerio [9]) | Activity (Danio rerio [10]) | Activity (Danio rerio [11]) | Activity (Danio rerio [12]) | Activity (Danio rerio [13]) | LC50 at 0.75 h [14] | Activity (Danio rerio [15]) | Activity (Danio rerio [16])
COc1ccc2[nH]c3c(O)cccc3c2c1Br | Active | Active | Active | Active | Active | Active | Active | Active | Active | Active | Active | Active | Active | 68 µM | Active | Active
COc1ccc2[nH]c3c(ccc4scnc43)c2c1Br | – | – | – | – | – | – | – | – | Active | – | – | – | – | – | – | –
